Assay results: article PMC11371747, “The role of l-leucovorin uptake and metabolism in the modulation of 5-fluorouracil efficacy and antifolate toxicity” (Frontiers in Pharmacology, 2024)
Several values for one entry are separate records, joined by “and”; a condition that tells them apart may be missing. Identical values can stand only once. Like-named read-outs stand apart in the source and are kept apart here.

Key:
[1] = tested on: CHO/C5-MOCK cells; test: Growth inhibition, SRB assay, CHO/C5-MOCK (empty vector); type: cell-based, Chinese hamster
Protocol: (§1) Briefly, cells were seeded in triplicate in 96-well plates at their pre-established optimal density (CHO cells: 2,500 cells/100 μL; WiDr and HT29: 3,500 cells/100 μL; WiDr-LF/LV, LS174T: 5,000 cells/100 μL; CaCo2, CaCo2-LF/LV, H292, H28 and MSTO-211H: 6,000 cells/100 μL; H460, SW948 and SW1398: 7,000 cells/100 μL) and were allowed to attach for ∼ 24 h at 37°C in 5% CO2 and 100% humidified incubator. Thereafter, 100 μL of drug dilution without LV, or with 5 μM l-LV/5 μM d-LV/10 μM dL-LV (or any LV alone) were added. Cells were allowed to grow for 72 h at 37°C in 5% CO2 and 100% humidity. The t = 0 h control plate consisted of cells plated on the same day as the other cells, but after 24 h at 37°C in 5% CO2 and 100% humidity, only 100 μL medium was added and the cells were fixed immediately with 50% trichloroacetic acid (TCA) in milliQ water (25 μL per well) and put at 4°C for at least 1 h. Plates were washed five times with water and dried. Cells were stained with the SRB protein dye (0.4% (w/v) in 1% acetic acid. Excess dye was washed away four times with 1% acetic acid and plates were dried again. 200 μL of Tris (10 mM Tris (hydroxymethyl)-aminomethane in MQ) was added and optical density (OD) was read at 492 nm after mixing 2–3 min on a plate shaker.

[2] = tested on: H460 cells; test: Growth inhibition, SRB assay, H460 (NSCLC); type: cell-based, human; settings: H460, SRB, read-out: IC50, 72 h drug exposure
Protocol: as §1

[3] = tested on: MSTO-211H cells; test: Growth inhibition, SRB assay, MSTO-211H (MPM); type: cell-based, human; settings: SRB, read-out: IC50, 72 h drug exposure
Protocol: as §1

[4] = tested on: CHO/C5-PCFT cells; test: Growth inhibition, SRB assay, CHO/C5-PCFT (PCFT-transfected); type: cell-based, Chinese hamster
Protocol: as §1

[5] = tested on: CHO/C5 cells; test: Growth inhibition, SRB assay, CHO/C5 (RFC-deficient); type: cell-based, Chinese hamster
Protocol: as §1

[6] = tested on: H292 cells; test: Growth inhibition, SRB assay, H292 (NSCLC); type: cell-based, human; settings: H292, SRB, read-out: IC50, 72 h drug exposure
Protocol: as §1

[7] = tested on: AA8 cells; test: Growth inhibition, SRB assay, AA8 (parental CHO); type: cell-based, Chinese hamster; settings: for IC50: AA8 parental CHO
Protocol: as §1

[8] = tested on: H28 cells; test: Growth inhibition, SRB assay, H28 (MPM); type: cell-based, human; settings: H28, SRB, read-out: IC50, 72 h drug exposure
Protocol: as §1

[9] = tested on: CHO/C5-hRFC cells; test: Growth inhibition, SRB assay, CHO/C5-hRFC (human RFC transfected); type: cell-based, Chinese hamster; settings: for IC50: CHO/C5-hRFC; for Protection by l-LV, increase of the IC50 value: hRFC-transfected cells, 5 µM l-LV
Protocol: as §1

[10] = target: T1, reduced folate carrier (RFC/SLC19A1) (Homo sapiens, UniProt P41440); test: Inhibition of RFC-mediated [3H]-l-LV influx in CEM-7A cells; type: cell-based; settings: for IC50: 5 µM [3H]-l-LV, 2 min, 37°C, read-out: Concentration for 50% inhibition of [3H]-l-LV influx (RFC)
T1 construct: CEM-7A cells, which display 30-fold RFC overexpression relative to wild-type CCRF-CEM cells; endogenous in cells; host or cells: CEM-7A (CCRF-CEM variant, RFC+++ 30-fold)
T1 sequence (P41440 1-591): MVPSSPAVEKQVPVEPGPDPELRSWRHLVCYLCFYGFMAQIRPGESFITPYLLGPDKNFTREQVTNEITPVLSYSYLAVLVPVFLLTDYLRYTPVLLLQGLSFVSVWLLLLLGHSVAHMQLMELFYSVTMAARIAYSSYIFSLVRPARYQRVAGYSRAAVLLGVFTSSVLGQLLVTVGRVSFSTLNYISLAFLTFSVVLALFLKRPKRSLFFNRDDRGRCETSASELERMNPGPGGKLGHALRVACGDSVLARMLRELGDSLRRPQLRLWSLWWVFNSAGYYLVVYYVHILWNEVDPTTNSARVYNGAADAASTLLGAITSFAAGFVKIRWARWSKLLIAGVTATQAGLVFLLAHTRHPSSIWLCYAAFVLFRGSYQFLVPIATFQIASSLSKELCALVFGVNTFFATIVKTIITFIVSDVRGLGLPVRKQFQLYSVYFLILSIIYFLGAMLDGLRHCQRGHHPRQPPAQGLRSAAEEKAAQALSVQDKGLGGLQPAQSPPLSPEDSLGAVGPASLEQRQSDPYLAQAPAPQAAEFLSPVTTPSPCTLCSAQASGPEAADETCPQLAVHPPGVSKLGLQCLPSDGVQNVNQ
Protocol: (§2) In order to determine whether the LV isomers were substrates for either folate receptor α (FRα), RFC and/or PCFT, we used model systems with established overexpression of these receptors or transporters ([Westerhof et al., 1995a]; [Westerhof et al., 1995b]; [Lasry et al., 2008]; [Van der Heijden et al., 2009]).
CEM-7A cells (2 × 10^6) were suspended in 1 mL HBSS and the assay was initiated by addition of 25 μL 200 μM [^3H]-l-LV; 5,000 pmol (i.e., 5 μM final concentration). Incubations proceeded for 2 min at 37°C in the absence and presence of increasing amounts of unlabelled LV/antifolate drug. Blanks consisted of a separate incubation at 4°C or incubation with 100-fold molar excess of unlabelled l-LV. [^3H]-l-LV influx was terminated by adding 9 mL ice-cold HBSS, centrifugation and an additional wash of the cells with 10 mL ice-cold buffer. Cell pellets were then assessed for radioactivity. Relative affinities for RFC are expressed as the concentration of unlabelled drug necessary to inhibit [^3H]-l-LV uptake by 50%.

[11] = target: T2, human PCFT (Homo sapiens, UniProt Q96NT5); test: Inhibition of PCFT-mediated [3H]-l-LV influx in CHO/C5-PCFT cells; type: cell-based, Chinese hamster (CHO cells); settings: for IC50: pH 5.5, 3 min, read-out: Concentration for 50% inhibition of PCFT-mediated [3H]-l-LV influx
T2 construct: expressed in transfected cells; host or cells: CHO/C5 (RFC-deficient Chinese hamster ovary cells, no PCFT)
T2 sequence (Q96NT5 1-459): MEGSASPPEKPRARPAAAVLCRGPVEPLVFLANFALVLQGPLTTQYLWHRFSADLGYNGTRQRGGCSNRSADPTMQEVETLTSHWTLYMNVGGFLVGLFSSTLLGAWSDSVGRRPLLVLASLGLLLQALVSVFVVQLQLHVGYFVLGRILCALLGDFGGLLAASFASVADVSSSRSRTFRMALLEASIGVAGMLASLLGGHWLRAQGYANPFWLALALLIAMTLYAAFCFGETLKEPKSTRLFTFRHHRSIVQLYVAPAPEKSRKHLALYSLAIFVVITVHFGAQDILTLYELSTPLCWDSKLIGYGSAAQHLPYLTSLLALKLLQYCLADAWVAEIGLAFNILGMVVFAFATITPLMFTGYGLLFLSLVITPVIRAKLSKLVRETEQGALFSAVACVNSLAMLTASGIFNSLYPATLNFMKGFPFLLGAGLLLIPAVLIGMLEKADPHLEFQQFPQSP
Protocol: as §2
The competitive inhibition by 2.5 μM [^3H]-l-LV influx of PCFT was measured essentially as described for the RFC assay, except that the incubation time was 3 min, at pH 5.5 (the optimal pH for PCFT) and pH 7.4 with increasing amounts of unlabelled LV stereoisomers/antifolate drug. For PCFT too, relative affinities were expressed as the concentration of unlabelled drug necessary to inhibit 50% of [^3H]-l-LV influx.

[12] = tested on: colon cancer cell lines; test: Growth inhibition, SRB assay, panel of colon cancer cell lines; type: cell-based, human
Protocol: as §1

[13] = target: T3, folate receptor α (FRα) (Homo sapiens, UniProt P15328); test: Intact cell competitive binding assay, displacement of [3H]-folic acid from FRα in KB cells; settings: for Relative affinity for FRα: 100 pmol [3H]-FA, inverse ratio of amount of drug displacing 50% of [3H]-FA, FA set to 1
T3 construct: endogenous in cells; host or cells: KB cells (FRα++)
T3 sequence (P15328 25-257): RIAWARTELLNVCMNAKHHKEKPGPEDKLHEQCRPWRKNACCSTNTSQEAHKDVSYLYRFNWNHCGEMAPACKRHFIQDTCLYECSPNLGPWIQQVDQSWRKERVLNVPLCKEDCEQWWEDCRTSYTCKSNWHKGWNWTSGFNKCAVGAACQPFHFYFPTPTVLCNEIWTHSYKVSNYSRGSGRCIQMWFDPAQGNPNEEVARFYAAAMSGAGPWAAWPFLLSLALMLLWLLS
Protocol: as §2
For FRα we used KB cells ([Westerhof et al., 1995b]). An intact cell binding assay for competitive binding was performed as described previously ([Westerhof et al., 1995a]). Briefly, cells were washed with Hanks balanced salt solution and 6 mM glucose (HBSS, pH 7.4), suspended in 1 mL of this solution (1*10^6 for KB cells) and incubated at 4°C for 15 min with 100 pmol [^3H]-folic acid [(^3H)-FA], in the presence and absence of unlabelled folic acid or LV stereoisomers. Cells were collected by centrifugation and analysed for radioactivity. Relative affinities for FRα were defined as the inverse ratio of compound to displace 50% of radioactive folic acid from FRα. The relative affinity of folic acid was set at 1.

[14] = target: T4, thymidylate synthase (TS) (Homo sapiens, UniProt P04818); test: TS in situ inhibition assay (TSIA) in colon cancer cells; type: cell-based; settings: WiDr, 5 µM d-LV
T4 construct: The principle of this assay is the measurement of TS enzymatic activity in intact cells; endogenous in cells; host or cells: colon cancer cell lines (WiDr, WiDr-LF, SW1398, LS174T and others)
T4 sequence (P04818 2-313 limits assumed): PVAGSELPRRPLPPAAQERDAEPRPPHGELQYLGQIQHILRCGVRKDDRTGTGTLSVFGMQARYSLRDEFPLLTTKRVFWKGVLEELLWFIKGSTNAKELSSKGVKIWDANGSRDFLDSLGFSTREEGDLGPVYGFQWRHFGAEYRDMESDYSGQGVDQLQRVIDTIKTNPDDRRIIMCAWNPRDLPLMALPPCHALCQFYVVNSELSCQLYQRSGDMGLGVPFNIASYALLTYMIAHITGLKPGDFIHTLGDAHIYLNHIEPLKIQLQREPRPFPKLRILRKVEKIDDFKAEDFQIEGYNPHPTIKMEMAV
Source text: The principle of this assay is the measurement of TS enzymatic activity in intact cells. Intact cells will readily internalize radioactively labelled [5-^3H]-deoxycytidine, which will be rapidly converted by deoxycytidine kinase (dCK) to [5-^3H]-dCMP and subsequently deaminated to [5-^3H]-dUMP, which will then serve as a substrate in the TS catalysed reaction to dTMP and ^3H2O; the quantity of ^3H2O formed over time is a measure of intracellular TS activity. […] This is because dCK has a higher, cell cycle independent activity than thymidine kinase 1, which is a cell cycle dependent enzyme. For this purpose, cancer cells were cultured in six wells plates at 2.5 × 10^5 cells/2 mL/well for 24 h. Thereafter, cells were exposed to drugs with or without the LV formulations at the indicated concentrations for 4 h. 2 h before the end of the incubation period [5-^3H]-2′-deoxycytidine (final concentration 1 µM) was added to the cells. […] In most cell lines we quantified dCK activity and dCK mRNA levels.

[15] = tested on: WiDr LF/LV cells; test: Growth inhibition, SRB assay, WiDr LF/LV; type: cell-based, human; settings: WiDr-LF cells, 5 µM d-LV
Protocol: as §1

[16] = Cricetulus griseus, antifolate alone
[17] = CHO/C5/PCFT cells, 2.5 µM [3H]-l-LV

Structure (SMILES) | IC50 [1, 16] | IC50 ([1]; antifolate + 5 µM l-LV) | IC50 [4, 16] | IC50 ([4]; antifolate + 5 µM l-LV) | IC50 [5, 16] | IC50 ([5]; antifolate + 5 µM l-LV) | IC50 ([7]; antifolate + 5 µM l-LV) | IC50 [7, 16] | IC50 ([9]; antifolate + 5 µM l-LV) | IC50 [9, 16] | Protection by l-LV, increase of the IC50 value [9] | IC50 [11, 17] | IC50 [10] | Molar excess over folic acid required for displacement of [3H]-FA binding from FRα [13] | Relative affinity for FRα [13] | other results
Cc1nc2ccc(CN(C)c3ccc(C(=O)N[C@@H](CCC(=O)O)C(=O)O)s3)cc2c(=O)[nH]1 [RTX, raltitrexed] | 2.4 µM | > 100 µM | 4.33 µM | 52.6 µM | 2.73 µM | 6.68 µM | 2.92 µM | 0.019 µM | 11.7 µM | 0.008 µM | 1462 fold |  |  |  |  | IC50 ([2]; antifolate + 5 µM l-LV): 19.8 µM; IC50 ([2]; Homo sapiens, NCI-H460, 72 h, antifolate alone): 0.022 ± 0.0009 µM; IC50 ([3]; Homo sapiens, 72 h, antifolate alone): 0.008 ± 0.0005 µM; IC50 ([3]; antifolate + 5 µM l-LV): 4.58 µM; IC50 ([6]; antifolate + 5 µM l-LV): 6.33 µM; IC50 ([6]; Homo sapiens, NCI-H292, 72 h, antifolate alone): 0.014 ± 0.0008 µM; IC50 ([8]; antifolate + 5 µM l-LV): 4.26 µM; IC50 ([8]; Homo sapiens, NCI-H28, 72 h, antifolate alone): 0.136 ± 0.016 µM
CN(Cc1cnc2nc(N)nc(N)c2n1)c1ccc(C(=O)N[C@@H](CCC(=O)O)C(=O)O)cc1 [MTX, methotrexate] | 6.67 µM | > 100 µM | 3.39 µM | 41 µM | 8.93 µM | > 100 µM | 6.6 µM | 0.038 µM | 1.45 µM | 0.02 µM | 72 fold |  |  |  |  | 50% inhibition of [3H]-l-LV influx (RFC), fold higher concentration than l-LV [10]: 3 fold; Fold less active than PLX ([7]; AA8 cells): 10 fold
Nc1nc(=O)c2c([nH]1)NC[C@H](CNc1ccc(C(=O)N[C@@H](CCC(=O)O)C(=O)O)cc1)N2C=O [[^3H]-l-LV, [3′,5′,7,9-^3H(N)]-(6S)-Leucovorin] |  |  |  |  |  |  |  |  |  |  |  |  |  |  |  | PCFT influx rate of [3H]-l-LV at pH 7.4 compared to pH 5.5 [11, 17]: 11% and 11.5%
Nc1nc2c(c(=O)[nH]1)N(C=O)C(CNc1ccc(C(=O)N[C@@H](CCC(=O)O)C(=O)O)cc1)CN2 (stereo partly drawn) [l-LV, 5-formyltetrahydrofolate] |  |  |  |  |  |  |  |  |  |  |  | 4 µM | 5.5 µM | 15 fold | 0.073 | PCFT substrate affinity of l-LV over d-LV [11]: 3.5 fold; Modulation (enhanced efficacy) of 5FU ([12]; selected colon cancer cell lines: WiDr, HT29, SW948 and SW1398 cells, 5 µM l-LV): 2 fold; RFC substrate affinity of l-LV over d-LV [10]: 8 fold
Nc1nc2c(c(=O)[nH]1)N(C=O)[C@H](CNc1ccc(C(=O)N[C@@H](CCC(=O)O)C(=O)O)cc1)CN2 [d-LV, (6R)-leucovorin] |  |  |  |  |  |  |  |  |  |  |  | 13.3 µM | 44 µM | 69 fold | 0.016 | Modulation of 5FU sensitivity ([12]; all colon cancer cell lines): ineffective; Protective effect on the TSIA against antifolates [14]: does not display any protective effect; Increase of IC50 value for 5FU by d-LV [15]: 1.5 fold
